Experimental data: patent US12240862B2, “Inhibitors of peptidylarginine deiminases” (Gilead Sciences, Inc., priority 2020, dated 2025)

molecular target: T1, human PAD4 (Homo sapiens, UniProt Q9UM07); test: In vitro PAD4 BAEE biochemical assay; conditions: human PAD4, BAEE substrate; 5 nM PAD4, 2 mM calcium chloride, 3 mM BAEE; geometric mean of multiple experiments
T1 construct: human PAD4 (NM_012387), A2P663, was PCR amplified; His-SUMO (N, cleaved yes); made in house; host or cells: E. coli BL21(DE3)
Method in brief: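 Ammonia release from BAEE deimination monitored by o-phthalaldehyde amine coupling (1 h, 25 °C) after EDTA stop. Final conditions: 5 nM tag-free recombinant human PAD4 (E. coli), 2 mM CaCl2, 3 mM BAEE, pH 7.6 MOPS with DTT; 30 min compound preincubation, then 2 h reaction at 25 °C.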

T1 sequence (Q9UM07 2-663): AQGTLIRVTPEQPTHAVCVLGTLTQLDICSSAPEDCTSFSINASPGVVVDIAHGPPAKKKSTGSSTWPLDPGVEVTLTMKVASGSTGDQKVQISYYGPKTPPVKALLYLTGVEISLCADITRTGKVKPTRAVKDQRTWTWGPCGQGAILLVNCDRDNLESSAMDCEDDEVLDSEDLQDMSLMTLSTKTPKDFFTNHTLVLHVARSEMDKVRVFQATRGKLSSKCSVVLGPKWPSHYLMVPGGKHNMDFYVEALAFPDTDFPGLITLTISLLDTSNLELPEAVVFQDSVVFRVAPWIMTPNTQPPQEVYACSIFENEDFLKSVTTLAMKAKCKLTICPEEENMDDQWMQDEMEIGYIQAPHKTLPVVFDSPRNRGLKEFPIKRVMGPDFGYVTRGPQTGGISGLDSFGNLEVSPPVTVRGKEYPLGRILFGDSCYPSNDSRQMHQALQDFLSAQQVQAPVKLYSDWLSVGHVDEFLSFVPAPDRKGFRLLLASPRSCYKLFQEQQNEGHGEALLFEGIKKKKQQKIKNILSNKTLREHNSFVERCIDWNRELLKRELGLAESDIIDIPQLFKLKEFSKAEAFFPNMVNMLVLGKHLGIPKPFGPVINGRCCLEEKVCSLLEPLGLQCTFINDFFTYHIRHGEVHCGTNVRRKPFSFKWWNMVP

Row | IC50 | SMILES
1 | 0.0472 µM | COc1cc(C(=O)N2[C@H]3CC[C@@H]2[C@H](N)C3)cc2nc(-c3cc4ccc([C@@H](C)NC(=O)[C@@H]5CC5(F)F)nc4n3CC3CC3)c(C)n12 [Example 130, (1~{S})-~{N}-[(1~{R})-1-[2-[7-[(1~{R},2~{R},4~{S})-2-amino-7-azabicyclo [2.2.1]heptane-7-carbonyl]-5-methoxy-3-methylimidazo [1,2-a]pyridin-2-yl]-1-(cyclopropylmethyl)pyrrolo [2,3-b]pyridin-6-yl]ethyl]-2,2-difluorocyclopropane-1-carboxamide]
2 | 0.0304 µM | COc1cc(C(=O)N2[C@H]3CC[C@@H]2[C@H](N)C3)cc2nc(-c3cc4ccc([C@@H](C)NC(=O)[C@H]5CC5(F)F)nc4n3CC3CC3)c(C)n12 [Example 131, (1~{R})-~{N}-[(1~{R})-1-[2-[7-[(1~{R},2~{R},4~{S})-2-amino-7-azabicyclo[2.2.1]heptane-7-carbonyl]-5-methoxy-3-methylimidazo [1,2-a]pyridin-2-yl]-1-(cyclopropylmethyl)pyrrolo [2,3-b]pyridin-6-yl]ethyl]-2,2-difluorocyclopropane-1-carboxamide]
3 | 0.698 µM | COc1cc(C(=O)N2[C@H]3CC[C@@H]2[C@H](N)C3)cc2nc(-c3cc4ccc([C@@H](C)NC(=O)C56CC(CO5)C6)nc4n3CC3CC3)c(C)n12 [Example 132, ~{N}-[(1~{R})-1-[2-[7-[(1~{R},2~{R},4~{S})-2-amino-7-azabicyclo[2.2.1]heptane-7-carbonyl]-5-methoxy-3-methylimidazo [1,2-a]pyridin-2-yl]-1-(cyclopropylmethyl)pyrrolo [2,3-b]pyridin-6-yl]ethyl]-2-oxabicyclo[2.1.1]hexane-1-carboxamide]
4 | 0.0561 µM | COc1cc(C(=O)N2[C@H]3CC[C@@H]2[C@H](N)C3)cc2nc(-c3cc4ccc([C@@H](C)NC(=O)C56CC(Cl)(C5)C6)nc4n3CC3CC3)c(C)n12 [Example 133, ~{N}-[(1~{R})-1-[2-[7-[(1~{R},2~{R},4~{S})-2-amino-7-azabicyclo[2.2.1]heptane-7-carbonyl]-5-methoxy-3-methylimidazo [1,2-a]pyridin-2-yl]-1-(cyclopropylmethyl)pyrrolo [2,3-b]pyridin-6-yl]ethyl]-3-chlorobicyclo[1.1.1]pentane-1-carboxamide]
5 | 0.0665 µM | COc1cc(C(=O)N2[C@H]3CC[C@@H]2[C@H](N)C3)cc2nc(-c3cc4ccc([C@@H](C)NC(=O)C(C)(C)CO)nc4n3CC3CC3)c(C)n12 [Example 134]
6 | 0.106 µM | COc1cc(C(=O)N2[C@H]3CC[C@@H]2[C@H](N)C3)cc2nc(-c3cc4ccc([C@@H](C)NC(=O)C5(C)CCOCC5)nc4n3CC3CC3)c(C)n12 [Example 135, ~{N}-[(1~{R})-1-[2-[7-[(1~{R},2~{R},4~{S})-2-amino-7-azabicyclo[2.2.1]heptane-7-carbonyl]-5-methoxy-3-methylimidazo [1,2-a]pyridin-2-yl]-1-(cyclopropylmethyl)pyrrolo [2,3-b]pyridin-6-yl]ethyl]-4-methyloxane-4-carboxamide]
7 | 0.143 µM | COc1cc(C(=O)N2[C@H]3CC[C@@H]2[C@H](N)C3)cc2nc(-c3cc4ccc([C@@H](C)NC(=O)C5(F)CC5)nc4n3CC3CC3)c(C)n12 [Example 136, ~{N}-[(1~{R})-1-[2-[7-[(1~{R},2~{R},4~{S})-2-amino-7-azabicyclo[2.2.1]heptane-7-carbonyl]-5-methoxy-3-methylimidazo [1,2-a]pyridin-2-yl]-1-(cyclopropylmethyl)pyrrolo [2,3-b]pyridin-6-yl]ethyl]-1-fluorocyclopropane-1-carboxamide]
8 | 0.107 µM | COc1cc(C(=O)N2[C@H]3CC[C@@H]2[C@H](N)C3)cc2nc(-c3cc4ccc([C@@H](C)NC(=O)C5(C(F)F)CC5)nc4n3CC3CC3)c(C)n12 [Example 137, ~{N}-[(1~{R})-1-[2-[7-[(1~{R},2~{R},4~{S})-2-amino-7-azabicyclo[2.2.1]heptane-7-carbonyl]-5-methoxy-3-methylimidazo [1,2-a]pyridin-2-yl]-1-(cyclopropylmethyl)pyrrolo [2,3-b]pyridin-6-yl]ethyl]-1-(difluoromethyl) cyclopropane-1-carboxamide]
9 | 0.328 µM | COc1cc(C(=O)N2[C@H]3CC[C@@H]2[C@H](N)C3)cc2nc(-c3cc4ccc([C@@H](C)NC(=O)C5(COC(F)(F)F)CC5)nc4n3CC3CC3)c(C)n12 [Example 138, ~{N}-[(1~{R})-1-[2-[7-[(1~{R},2~{R},4~{S})-2-amino-7-azabicyclo[2.2.1]heptane-7-carbonyl]-5-methoxy-3-methylimidazo [1,2-a]pyridin-2-yl]-1-(cyclopropylmethyl)pyrrolo [2,3-b]pyridin-6-yl]ethyl]-1-(trifluoromethoxymethyl) cyclopropane-1-carboxamide]
10 | 0.208 µM | COc1cc(C(=O)N2CCC[C@@H](N)C2)cc2nc(-c3cc4ccc([C@@H](C)NC(=O)C56CC(C#N)(C5)C6)nc4n3CC3CC3)c(C3CC3)n12 [Example 139, ~{N}-[(1~{R})-1-[2-[7-[(3~{R})-3-aminopiperidine-1-carbonyl]-3-cyclopropyl-5-methoxyimidazo [1,2-a]pyridin-2-yl]-1-(cyclopropylmethyl)pyrrolo [2,3-b]pyridin-6-yl]ethyl]-3-cyanobicyclo[1.1.1]pentane-1-carboxamide]
11 | 0.118 µM | COc1cc(C(=O)N2[C@H]3CC[C@@H]2[C@H](N)C3)cc2nc(-c3cc4ccc([C@@H](C)NC(=O)C56CC(C#N)(C5)C6)nc4n3CC3CC3)c(C3CC3)n12 [Example 140, ~{N}-[(1~{R})-1-[2-[7-[(1~{R},2~{R},4~{S})-2-amino-7-azabicyclo[2.2.1]heptane-7-carbonyl]-3-cyclopropyl-5-methoxyimidazo[1,2-a]pyridin-2-yl]-1-(cyclopropylmethyl)pyrrolo[2,3-b]pyridin-6-yl]ethyl]-3-cyanobicyclo[1.1.1]pentane-1-carboxamide]
12 | 0.187 µM | COc1cc(C(=O)N2CCC[C@@H](N)C2)cc2nc(-c3cc4ccc([C@@H](C)NC(=O)c5ccccc5)nc4n3CC3CC3)c(C3CC3)n12 [Example 141, ~{N}-[(1~{R})-1-[2-[7-[(3~{R})-3-aminopiperidine-1-carbonyl]-3-cyclopropyl-5-methoxyimidazo [1,2-a]pyridin-2-yl]-1-(cyclopropylmethyl)pyrrolo [2,3-b]pyridin-6-yl]ethyl] benzamide]
13 | 0.121 µM | COc1cc(C(=O)N2[C@H]3CC[C@@H]2[C@H](N)C3)cc2nc(-c3cc4ccc([C@@H](C)NC(=O)c5ccccc5)nc4n3CC3CC3)c(C3CC3)n12 [Example 142, ~{N}-[(1~{R})-1-[2-[7-[(1~{R},2~{R},4~{S})-2-amino-7-azabicyclo[2.2.1]heptane-7-carbonyl]-3-cyclopropyl-5-methoxyimidazo[1,2-a]pyridin-2-yl]-1-(cyclopropylmethyl)pyrrolo [2,3-b]pyridin-6-yl]ethyl] benzamide]
14 | 0.139 µM | COc1cc(C(=O)N2CCC[C@@H](N)C2)cc2nc(-c3cc4ccc([C@@H](C)NC(=O)C(C)(C)C)nc4n3CC3CC3)c(C3CC3)n12 [Example 143, ~{N}-[(1~{R})-1-[2-[7-[(3~{R})-3-aminopiperidine-1-carbonyl]-3-cyclopropyl-5-methoxyimidazo [1,2-a]pyridin-2-yl]-1-(cyclopropylmethyl)pyrrolo [2,3-b]pyridin-6-yl]ethyl]-2,2-dimethylpropanamide]
15 | 0.13 µM | COc1cc(C(=O)N2[C@H]3CC[C@@H]2[C@H](N)C3)cc2nc(-c3cc4ccc([C@@H](C)NC(=O)C56CC(F)(C5)C6)nc4n3CC3CC3)c(C3CC3)n12 [Example 144, ~{N}-[(1~{R})-1-[2-[7-[(1~{R},2~{R},4~{S})-2-amino-7-azabicyclo[2.2.1]heptane-7-carbonyl]-3-cyclopropyl-5-methoxyimidazo[1,2-a]pyridin-2-yl]-1-(cyclopropylmethyl)pyrrolo [2,3-b]pyridin-6-yl]ethyl]-3-fluorobicyclo[1.1.1]pentane-1-carboxamide]
16 | 0.215 µM | COc1cc(C(=O)N2CCC[C@@H](N)C2)cc2nc(-c3cc4ccc([C@@H](C)NC(=O)C56CC(F)(C5)C6)nc4n3CC3CC3)c(C3CC3)n12 [Example 145, ~{N}-[(1~{R})-1-[2-[7-[(3~{R})-3-aminopiperidine-1-carbonyl]-3-cyclopropyl-5-methoxyimidazo [1,2-a]pyridin-2-yl]-1-(cyclopropylmethyl)pyrrolo [2,3-b]pyridin-6-yl]ethyl]-3-fluorobicyclo[1.1.1]pentane-1-carboxamide]
17 | 0.16 µM | COc1cc(C(=O)N2CCC[C@@H](N)C2)cc2nc(-c3cc4ccc([C@@H](C)NC(=O)N5CC(O)C5)nc4n3CC3CC3)c(C3CC3)n12 [Example 146, ~{N}-[(1~{R})-1-[2-[7-[(3~{R})-3-aminopiperidine-1-carbonyl]-3-cyclopropyl-5-methoxyimidazo [1,2-a]pyridin-2-yl]-1-(cyclopropylmethyl)pyrrolo [2,3-b]pyridin-6-yl]ethyl]-3-hydroxyazetidine-1-carboxamide]
18 | 0.403 µM | COc1cc(C(=O)N2[C@H]3CC[C@@H]2[C@H](N)C3)cc2nc(-c3cc4ccc([C@@H](C)NC(=O)C56CC(c7ccccc7)(C5)C6)nc4n3CC3CC3)c(C)n12 [Example 147, ~{N}-[(1~{R})-1-[2-[7-[(1~{R},2~{R},4~{S})-2-amino-7-azabicyclo[2.2.1]heptane-7-carbonyl]-5-methoxy-3-methylimidazo [1,2-a]pyridin-2-yl]-1-(cyclopropylmethyl)pyrrolo [2,3-b]pyridin-6-yl]ethyl]-3-phenylbicyclo[1.1.1]pentane-1-carboxamide]
